Values quoted from earlier work, collected in patent US12678479B2, “Pharmaceutical compositions comprising teixobactin” (priority 2018, dated 2026).

Tested on: MRSA ATCC 33591
Conditions: comparison value

CN[C@H](CC(C)C)C(=O)N[C@H]1C(=O)N[C@@H](CC(N)=O)C(=O)N[C@H]2C(=O)N[C@H]3C(=O)N[C@H](C(=O)N[C@H](C(=O)O)c4cc(O)cc(O)c4-c4cc3ccc4O)[C@H](O[C@H]3C[C@](C)(N)[C@@H](O)[C@H](C)O3)c3ccc(c(Cl)c3)Oc3cc2cc(c3O[C@@H]2O[C@H](CO)[C@@H](O)[C@H](O)[C@H]2O[C@H]2C[C@](C)(NCc3ccc(-c4ccc(Cl)cc4)cc3)[C@@H](O)[C@H](C)O2)Oc2ccc(cc2Cl)[C@H]1O [Orbactiv, oritavancin]
effective dose: 4 to 5 mg/kg
